Legend:
Type in all cases: in vivo
[1] = tested on: healthy human female subjects; assay: menstrual bleeding pattern (amenorrhea) during treatment; conditions: for Amenorrhea (no bleeding), subjects / Amenorrhea + spotting only, subjects: last 4 weeks of treatment
Protocol: To assess the effects of compound (II) on serum β17-estradiol concentration and menstrual blood loss, a total of 75 healthy human female subjects were divided into five treatment groups, as described in Table 1, below. The subjects were screened for a period of four weeks prior to the commencement of treatment with compound (II). At the conclusion of the four week screening period, the subjects in each treatment arm were administered an equivalent dosage of norethindrone acetate of 5 mg×3 times daily. This 15 mg/day dosage was administered for a total of 11 days so as to allow synchronization of menses among the subjects. The subjects were subsequently not treated for the ensuing 4 days. Following this withdrawal period, the subjects were treated with compound (II), with or without add-back therapy, once daily for 42 days according to the dosages set forth in Table 1. Following the 42-day treatment cycle, the subjects were further monitored for a period of 13 days. To assess the effects of compound (II) on menstrual blood loss, the volume of menstrual blood lost by each subject was evaluated over the course of the entirety of the study, including the 11-day screening period, 4-day withdrawal period, 42-treatment period, and 13-day post-treatment evaluation period. Assessment of menstrual blood loss was conducted using an electronic diary method, as subjects recorded daily whether their bleeding for each day was heavy, moderate, or light spotting.

[2] = tested on: healthy human female subjects; assay: serum β17-estradiol (E2) concentration during 42-day once-daily treatment
Protocol: To assess the effects of compound (II) on serum β17-estradiol concentration and menstrual blood loss, a total of 75 healthy human female subjects were divided into five treatment groups, as described in Table 1, below. The subjects were screened for a period of four weeks prior to the commencement of treatment with compound (II). At the conclusion of the four week screening period, the subjects in each treatment arm were administered an equivalent dosage of norethindrone acetate of 5 mg×3 times daily. This 15 mg/day dosage was administered for a total of 11 days so as to allow synchronization of menses among the subjects. The subjects were subsequently not treated for the ensuing 4 days. Following this withdrawal period, the subjects were treated with compound (II), with or without add-back therapy, once daily for 42 days according to the dosages set forth in Table 1. Following the 42-day treatment cycle, the subjects were further monitored for a period of 13 days. As used herein, the add-back regime of 1.0 mg/day β17-estradiol and 0.5 mg/day norethindrone acetate is referred to as the “high-dose” or […] add-back dosage, while the add-back regime of 0.5 mg/day β17-estradiol and 0.1 mg/day norethindrone acetate was referred to as the “low-dose” or “LD” add-back dosage. This labeling convention is used throughout this Example and is additionally referred to in the Figures.

[3] = tested on: healthy human female subjects; assay: biomarkers of bone mineral density (creatinine-normalized deoxypyridinoline); conditions: 100 mg/day + 1.0 mg/day E2 and 0.5 mg/day norethindrone acetate, urine (FIG. 25)
Protocol: To assess the effects of compound (II) on serum β17-estradiol concentration and menstrual blood loss, a total of 75 healthy human female subjects were divided into five treatment groups, as described in Table 1, below. The subjects were screened for a period of four weeks prior to the commencement of treatment with compound (II). At the conclusion of the four week screening period, the subjects in each treatment arm were administered an equivalent dosage of norethindrone acetate of 5 mg×3 times daily. This 15 mg/day dosage was administered for a total of 11 days so as to allow synchronization of menses among the subjects. The subjects were subsequently not treated for the ensuing 4 days. Following this withdrawal period, the subjects were treated with compound (II), with or without add-back therapy, once daily for 42 days according to the dosages set forth in Table 1. Following the 42-day treatment cycle, the subjects were further monitored for a period of 13 days. In addition to assessing the ability of compound (II) to modulate serum E2 and progesterone levels and to curtail menstrual bleeding, compound (II) was evaluated for its effects on biomarkers of bone mineral density (FIGS. 25-29). These markers include creatinine-normalized deoxypyridinoline (DPD), which is excreted in larger quantities when bone resorption is increased.

[4] = 100 mg daily + add-back E2/NETA 0.5 mg/0.1 mg
[5] = 100 mg daily + add-back E2/NETA 0.5 mg/0.1 mg, listed as compound (II)
[6] = 100 mg daily + add-back E2/NETA 1 mg/0.5 mg
[7] = 100 mg daily + add-back E2/NETA 1 mg/0.5 mg, listed as compound (II)
[8] = 100 mg daily, no add-back, listed as compound (II)
[9] = 200 mg daily + add-back E2/NETA 1 mg/0.5 mg
[10] = 200 mg daily + add-back E2/NETA 1 mg/0.5 mg, listed as compound (II)
[11] = 200 mg daily, no add-back, listed as compound (II)

COc1cc(F)c(-n2c(=O)[nH]c3csc(C(=O)O)c3c2=O)cc1OCc1c(OC)ccc(F)c1F [Compound (II), choline 3-[2-fluoro-5-(2,3-difluoro-6-methoxybenzyloxy)-4-methoxyphenyl]-2,4-dioxo-1,2,3,4-tetrahydrothieno [3,4d]pyrimidine-5-carboxylate]
Amenorrhea (no bleeding), subjects [1, 4]: 21%
Amenorrhea + spotting only, subjects [1, 4]: 57%
Amenorrhea (no bleeding), subjects [1, 5]: at least 21%
Amenorrhea + spotting only, subjects [1, 5]: at least 57%
Amenorrhea (no bleeding), subjects [1, 6]: 53%
Amenorrhea + spotting only, subjects [1, 6]: 93%
Amenorrhea (no bleeding), subjects [1, 7]: at least 53%
Amenorrhea + spotting only, subjects [1, 7]: at least 93%
Amenorrhea (no bleeding), subjects ([1]; 100 mg daily, no add-back): 86%
Amenorrhea + spotting only, subjects ([1]; 100 mg daily, no add-back): 93%
Amenorrhea (no bleeding), subjects [1, 8]: at least 86%
Amenorrhea + spotting only, subjects [1, 8]: at least 93%
Amenorrhea (no bleeding), subjects [1, 9]: 33%
Amenorrhea + spotting only, subjects [1, 9]: 60%
Amenorrhea (no bleeding), subjects [1, 10]: at least 33%
Amenorrhea + spotting only, subjects [1, 10]: at least 60%
Amenorrhea (no bleeding), subjects ([1]; 200 mg daily, no add-back): 87%
Amenorrhea + spotting only, subjects ([1]; 200 mg daily, no add-back): 100%
Amenorrhea (no bleeding), subjects [1, 11]: at least 87%
Amenorrhea + spotting only, subjects [1, 11]: 100%
effect on menstrual bleeding ([1]; 100 or 200 mg/day with or without add-back (FIGS. 20-24)): capable of inducing sustained amenorrhea
Median E2 level, E2 Week 1 ([2]; 100 mg daily + add-back E2/NETA 0.5 mg/0.1 mg, n = 14, after week 1): 25 pg/mL
Median E2 level, E2 Week 6 ([2]; 100 mg daily + add-back E2/NETA 0.5 mg/0.1 mg, n = 14, after week 6): 40 pg/mL
Median E2 level, E2 Week 1 ([2]; 100 mg daily + add-back E2/NETA 1 mg/0.5 mg, n = 15, after week 1): 35 pg/mL
Median E2 level, E2 Week 6 ([2]; 100 mg daily + add-back E2/NETA 1 mg/0.5 mg, n = 15, after week 6): 34 pg/mL
Median E2 level, E2 Week 1 ([2]; 100 mg daily, no add-back, n = 14, after week 1): 12 pg/mL
Median E2 level, E2 Week 6 ([2]; 100 mg daily, no add-back, n = 14, after week 6): 18 pg/mL
E2 levels, majority of subjects ([2]; 100 mg/day without add-back, each of days 8, 15 and 22): less than 20 μg/ml
Median E2 level, E2 Week 1 ([2]; 200 mg daily + add-back E2/NETA 1 mg/0.5 mg, n = 15, after week 1): 27 pg/mL
Median E2 level, E2 Week 6 ([2]; 200 mg daily + add-back E2/NETA 1 mg/0.5 mg, n = 15, after week 6): 25 pg/mL
Median E2 level, E2 Week 1 ([2]; 200 mg daily, no add-back, n = 14, after week 1): 5 pg/mL
Median E2 level, E2 Week 6 ([2]; 200 mg daily, no add-back, n = 14, after week 6): 3 pg/mL
serum E2 concentrations, all subjects ([2]; 200 mg/day stand-alone arm, each of days 8, 15, 22, 29 and 36): less than 20 μg/ml
effect on median serum E2 levels ([2]; 100 or 200 mg/day, 42-day treatment cycle (FIG. 1)): reduced in a dose-dependent manner
creatinine-normalized deoxypyridinoline (DPD), comparison among arms [3]: smallest increase

From patent publication US11759464B2, “Gonadotropin-releasing hormone antagonist dosing regimens for treating uterine fibroids and reducing menstrual blood loss” (ObsEva S.A., priority 2017, dated 2023)
